Experimental data taken from ChEMBL document CHEMBL1201862, “PubChem BioAssay data set” (2004).
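Following 48 hours of exposure in 96-well plates, responses at five concentrations were used to interpolate endpoints linearly. Here, GI50 denotes the concentration required for 50% inhibition of growth.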 Active and inactive are the calls of the source. Rule as the data show it: active = GI50 up to about 1.1 µM and inactive = higher.

Legend:
Test in all cases: inhibition of tumour cell growth, NCI panel, 48 h
[1] = test system: MCF7
[2] = test system: COLO 205
[3] = test system: NCI-H460
[4] = test system: RPMI-8226
[5] = test system: UACC-62
[6] = test system: HCT-116
[7] = test system: K562
[8] = test system: U-251
[9] = test system: SNB-19
[10] = test system: HOP-92
[11] = test system: UACC-257
[12] = test system: A549
[13] = test system: KM12
[14] = test system: BT-549
[15] = test system: OVCAR-3
[16] = test system: SNB-75
[17] = test system: NCI-H522
[18] = test system: SW-620
[19] = test system: ACHN
[20] = test system: HCC 2998

Measured: GI50

O=C1NC(=O)C(C(CC(=O)c2ccc([N+](=O)[O-])cc2)c2ccccc2)C(=O)N1 (stereo not given)
inactive: [1] 13.5 µM | [2] > 100 µM | [3] > 100 µM | [4] 31.3 µM | [5] 77.1 µM | [6] 14.8 µM | [7] 60.3 µM | [8] 49.4 µM | [9] 24.8 µM | [10] > 100 µM | [11] > 100 µM | [12] 97.3 µM | [13] 14.8 µM | [14] > 100 µM | [15] 36.7 µM | [16] > 100 µM | [17] 47.2 µM | [18] 29.2 µM | [19] > 100 µM

O=C(n1c(=O)n(-c2ccc(Cl)cc2)c(=O)n1C(=O)C(Cl)(Cl)Cl)C(Cl)(Cl)Cl
inactive: [1] > 100 µM | [2] > 100 µM | [3] > 100 µM | [4] > 100 µM | [5] > 100 µM | [20] > 100 µM | [6] > 100 µM | [7] 21.4 µM | [8] > 100 µM | [9] > 100 µM | [10] > 100 µM | [11] > 100 µM | [12] > 100 µM | [13] 82.8 µM | [14] 66.5 µM | [15] > 100 µM | [17] > 100 µM | [18] > 100 µM | [19] 12.7 µM

O=C1N/N=C\Nc2ccc(cc2)S(=O)(=O)c2ccc(cc2)/N=C\NNC1=O
inactive: [1] > 100 µM | [2] > 100 µM | [3] > 100 µM | [5] > 100 µM | [20] > 100 µM | [6] > 100 µM | [7] > 100 µM | [8] > 100 µM | [9] > 100 µM | [10] > 100 µM | [11] > 100 µM | [12] > 100 µM | [13] > 100 µM | [14] 72.8 µM | [15] > 100 µM | [17] > 100 µM | [18] > 100 µM | [19] > 100 µM

C=C1C(=O)O[C@@H]2O[C@@]3(C)CC[C@H]4[C@H](C)CC[C@@H]1[C@@]24O3 [DEOXYARTEMISITENE]
inactive: [1] 5.52 µM | [2] 11.9 µM | [3] 22.3 µM | [4] 6.37 µM | [5] 13 µM | [20] 21.9 µM | [6] 10.8 µM | [7] 3.56 µM | [8] 43.4 µM | [9] 47.2 µM | [10] 3.49 µM | [11] 18.9 µM | [12] 34.8 µM | [13] 4.19 µM | [14] 7.46 µM | [15] 22.2 µM | [17] 6.58 µM | [18] 15.5 µM | [19] 11.3 µM

CCc1n[nH]c(=O)n1/N=C/c1ccccc1Cl
inactive: [1] > 100 µM | [2] > 100 µM | [3] > 100 µM | [4] > 100 µM | [5] 53.6 µM | [20] > 100 µM | [6] > 100 µM | [7] > 100 µM | [8] 65.8 µM | [9] > 100 µM | [10] 74.8 µM | [11] > 100 µM | [12] > 100 µM | [13] 93.8 µM | [14] > 100 µM | [15] > 100 µM | [17] > 100 µM | [18] > 100 µM | [19] > 100 µM

CC(C)(CN1CCCCC1)C(=O)CC(SCCS(=O)(=O)O)c1ccc(Cl)c(Cl)c1 (stereo not given)
inactive: [1] 3.46 µM | [2] 2.58 µM | [3] 2.22 µM | [4] 4.01 µM | [5] 3.13 µM | [20] 13 µM | [6] 2.59 µM | [7] 2.42 µM | [8] 7.13 µM | [9] 10.4 µM | [10] 1.76 µM | [11] 5.94 µM | [12] 5.98 µM | [13] 5.71 µM | [14] 2.9 µM | [15] 2.37 µM | [17] 3.19 µM | [18] 2.22 µM | [19] 3.29 µM

COC(=O)[C@@H]1[C@@H](c2cccc(Cl)c2)[C@H](C(=O)OC)C2(C[C@@]1(C)O)NCCS2 (stereo not given in full)
inactive: [1] 56.1 µM | [2] 81.1 µM | [3] 48.4 µM | [5] 73.5 µM | [6] 42.5 µM | [7] 25.6 µM | [8] > 100 µM | [9] 83.9 µM | [10] 73.6 µM | [11] 87.7 µM | [12] 55 µM | [13] 48.8 µM | [14] > 100 µM | [15] 31.3 µM | [16] 35.5 µM | [17] 24.2 µM | [18] 36.6 µM | [19] > 100 µM

Cc1ccc(-c2cnc(NC3OC(COC(=O)c4ccccc4)C(OC(=O)c4ccccc4)C(OC(=O)c4ccccc4)C3OC(=O)c3ccccc3)s2)cc1 (stereo not given)
inactive: [1] > 100 µM | [2] > 100 µM | [3] > 100 µM | [4] > 100 µM | [5] 94.6 µM | [6] > 100 µM | [8] > 100 µM | [9] > 100 µM | [10] 20.4 µM | [11] 67.9 µM | [12] > 100 µM | [14] > 100 µM | [15] > 100 µM | [16] > 100 µM | [17] > 100 µM | [18] > 100 µM | [19] > 100 µM

CC1(C)C(=O)N(O)C(C)(C)N1N=O
inactive: [1] > 10 µM | [2] > 10 µM | [3] > 10 µM | [4] 1.89 µM | [20] > 10 µM | [6] > 10 µM | [7] > 10 µM | [8] > 10 µM | [9] > 10 µM | [10] > 10 µM | [11] > 10 µM | [12] > 10 µM | [13] > 10 µM | [14] > 10 µM | [15] > 10 µM | [17] > 10 µM | [18] > 10 µM | [19] > 10 µM

C=CCOC1OC(CO[Si](C)(C)C(C)(C)C)C(OCc2ccccc2)C(OCc2ccccc2)C1OCc1ccccc1 (stereo not given)
inactive: [1] 54.3 µM | [2] > 100 µM | [3] 42 µM | [4] > 100 µM | [5] 27.2 µM | [6] 23 µM | [7] > 100 µM | [8] 29.2 µM | [9] 26.2 µM | [10] 38.5 µM | [11] 46.8 µM | [12] 23.6 µM | [13] > 100 µM | [14] 65 µM | [15] 37.2 µM | [16] 21.5 µM | [17] 34 µM | [18] > 100 µM | [19] 40.4 µM
